Calls of active or inactive are those of the source.
Experiments:
[1] = biological target: T1, Short transient receptor potential channel 4 (Mus musculus, UniProt Q9QUQ5); assay: calcium entry via TRPC4 opening agents – cell-based, HEK293 TRPC4/mu-opioid, Fluo-4 calcium, dose response (AID 434937); assay type: functional
T1 sequence (Q9QUQ5 whole entry): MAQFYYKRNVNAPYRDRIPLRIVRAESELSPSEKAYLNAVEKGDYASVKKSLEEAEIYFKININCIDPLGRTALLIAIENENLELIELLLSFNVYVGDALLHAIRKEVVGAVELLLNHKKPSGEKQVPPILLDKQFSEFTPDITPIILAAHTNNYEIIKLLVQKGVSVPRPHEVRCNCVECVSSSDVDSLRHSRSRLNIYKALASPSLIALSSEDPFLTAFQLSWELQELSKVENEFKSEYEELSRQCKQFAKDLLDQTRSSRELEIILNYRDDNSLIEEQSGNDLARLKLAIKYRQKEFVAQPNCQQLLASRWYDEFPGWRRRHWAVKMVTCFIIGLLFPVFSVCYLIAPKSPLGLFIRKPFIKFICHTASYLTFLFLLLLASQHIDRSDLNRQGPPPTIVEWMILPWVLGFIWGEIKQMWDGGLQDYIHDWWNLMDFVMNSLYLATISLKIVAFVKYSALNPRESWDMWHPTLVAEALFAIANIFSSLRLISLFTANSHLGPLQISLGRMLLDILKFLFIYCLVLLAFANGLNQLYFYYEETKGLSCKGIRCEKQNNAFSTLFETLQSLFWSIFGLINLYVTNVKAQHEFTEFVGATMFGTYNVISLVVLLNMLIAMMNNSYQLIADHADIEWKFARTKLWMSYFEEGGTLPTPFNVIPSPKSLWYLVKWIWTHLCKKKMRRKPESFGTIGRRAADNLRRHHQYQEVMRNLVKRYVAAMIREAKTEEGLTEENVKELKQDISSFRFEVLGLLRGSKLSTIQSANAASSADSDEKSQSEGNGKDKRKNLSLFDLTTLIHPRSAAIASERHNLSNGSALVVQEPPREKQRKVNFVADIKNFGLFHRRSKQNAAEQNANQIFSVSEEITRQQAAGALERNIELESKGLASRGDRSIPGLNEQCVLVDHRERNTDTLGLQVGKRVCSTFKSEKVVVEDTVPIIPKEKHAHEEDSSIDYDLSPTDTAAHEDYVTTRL

Keap1/Nrf2 = Keap1/Nrf2 (Homo sapiens, UniProt Q14145); assay: disruptors of Keap1 binding to Nrf2 peptide – biochemical, fluorescence polarization, cherry-picked samples, dose response (AID 588683)
[2] = biological target: T2, RNA-binding protein pos-1 (Caenorhabditis elegans, UniProt G5EF15); assay: disruptors of C. elegans POS-1 RNA interaction – biochemical, fluorescence polarization, dose response (AID 1964);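 note: purified POS-1 fused to maltose binding protein made in E. coli; potency of compounds blocking POS-1 binding to fluorescent RNA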
T2 sequence (G5EF15 whole entry): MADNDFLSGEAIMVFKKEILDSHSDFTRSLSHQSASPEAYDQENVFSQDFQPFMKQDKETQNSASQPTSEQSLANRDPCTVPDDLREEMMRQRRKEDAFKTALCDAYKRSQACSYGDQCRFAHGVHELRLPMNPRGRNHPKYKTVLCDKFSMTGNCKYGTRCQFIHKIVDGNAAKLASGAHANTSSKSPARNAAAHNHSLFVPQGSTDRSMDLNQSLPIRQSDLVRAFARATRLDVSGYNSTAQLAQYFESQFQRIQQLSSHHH

Estrogen receptor beta = Estrogen receptor beta (Homo sapiens, UniProt Q92731);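 note: recombinant ER-beta bound to coactivator SRC1 peptide in presence of estradiol agonist; inhibitors block coactivator peptide binding and lower the FRET signal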
Cytochrome P450 2C19 = Cytochrome P450 2C19 (Homo sapiens, UniProt P33261); assay: Cytochrome panel assay with activity outcomes. Panel member name: p450-cyp2c19 Compounds with AC50 equal or less than 10 uM are considered active; assay type: functional; conditions: read-out: AC50
[3] = luciferase reporter signal suppression in cells – H4 neuroglioma cells, luminescence, dose response (AID 1990); assay type: functional, cell-based
[4] = biological target: Mothers against decapentaplegic homolog 3 (Homo sapiens, UniProt P84022); assay: inhibitors of SMAD-driven TGF-beta signaling – dose response (AID 715); assay type: functional
[5] = biological target: Lysine-specific demethylase 4C (Homo sapiens, UniProt Q9H3R0); assay: inhibition of JMJD2C H3K9me3 demethylation – biochemical, DELFIA europium, cherry-picked samples, dose response (AID 488835); assay type: functional
[6] = biological target: Voltage-gated N-type calcium channel alpha-1B subunit/Amyloid beta A4 precursor protein-binding family A member 1 (Homo sapiens, UniProt Q00975+Q02410); assay type: protein assay
[7] = biological target: T3, Dual specificity protein phosphatase 6 (Rattus norvegicus, UniProt Q64346); assay: inhibition of rat DUSP6 enzyme activity – biochemical, in vitro, primary screen (AID 425)
T3 sequence (Q64346 whole entry): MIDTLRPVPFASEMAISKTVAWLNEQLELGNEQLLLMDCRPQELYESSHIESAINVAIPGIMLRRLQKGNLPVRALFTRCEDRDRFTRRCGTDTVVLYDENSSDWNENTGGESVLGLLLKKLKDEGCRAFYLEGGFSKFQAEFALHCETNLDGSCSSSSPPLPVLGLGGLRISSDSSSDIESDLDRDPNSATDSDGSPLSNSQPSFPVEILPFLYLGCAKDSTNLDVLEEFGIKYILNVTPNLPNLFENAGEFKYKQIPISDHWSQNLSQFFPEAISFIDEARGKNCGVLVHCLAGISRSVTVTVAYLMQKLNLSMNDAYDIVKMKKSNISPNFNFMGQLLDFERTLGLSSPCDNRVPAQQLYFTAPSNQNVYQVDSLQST

Phospholipase A2 = Phospholipase A2 (Homo sapiens, UniProt P04054); assay type: functional;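 note: confirmatory dose-response counterscreen on phospholipase A2, testing hits that came from an ultra-high-throughput screen for ATG4B inhibitors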
Chain of Phospholipase A2 (P04054 whole entry): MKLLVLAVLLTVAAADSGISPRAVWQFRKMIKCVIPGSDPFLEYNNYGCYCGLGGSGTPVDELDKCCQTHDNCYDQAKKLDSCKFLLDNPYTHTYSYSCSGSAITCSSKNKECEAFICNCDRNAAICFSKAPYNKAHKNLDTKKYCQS

Chain of Lysine-specific demethylase 4C (Q9H3R0 whole entry): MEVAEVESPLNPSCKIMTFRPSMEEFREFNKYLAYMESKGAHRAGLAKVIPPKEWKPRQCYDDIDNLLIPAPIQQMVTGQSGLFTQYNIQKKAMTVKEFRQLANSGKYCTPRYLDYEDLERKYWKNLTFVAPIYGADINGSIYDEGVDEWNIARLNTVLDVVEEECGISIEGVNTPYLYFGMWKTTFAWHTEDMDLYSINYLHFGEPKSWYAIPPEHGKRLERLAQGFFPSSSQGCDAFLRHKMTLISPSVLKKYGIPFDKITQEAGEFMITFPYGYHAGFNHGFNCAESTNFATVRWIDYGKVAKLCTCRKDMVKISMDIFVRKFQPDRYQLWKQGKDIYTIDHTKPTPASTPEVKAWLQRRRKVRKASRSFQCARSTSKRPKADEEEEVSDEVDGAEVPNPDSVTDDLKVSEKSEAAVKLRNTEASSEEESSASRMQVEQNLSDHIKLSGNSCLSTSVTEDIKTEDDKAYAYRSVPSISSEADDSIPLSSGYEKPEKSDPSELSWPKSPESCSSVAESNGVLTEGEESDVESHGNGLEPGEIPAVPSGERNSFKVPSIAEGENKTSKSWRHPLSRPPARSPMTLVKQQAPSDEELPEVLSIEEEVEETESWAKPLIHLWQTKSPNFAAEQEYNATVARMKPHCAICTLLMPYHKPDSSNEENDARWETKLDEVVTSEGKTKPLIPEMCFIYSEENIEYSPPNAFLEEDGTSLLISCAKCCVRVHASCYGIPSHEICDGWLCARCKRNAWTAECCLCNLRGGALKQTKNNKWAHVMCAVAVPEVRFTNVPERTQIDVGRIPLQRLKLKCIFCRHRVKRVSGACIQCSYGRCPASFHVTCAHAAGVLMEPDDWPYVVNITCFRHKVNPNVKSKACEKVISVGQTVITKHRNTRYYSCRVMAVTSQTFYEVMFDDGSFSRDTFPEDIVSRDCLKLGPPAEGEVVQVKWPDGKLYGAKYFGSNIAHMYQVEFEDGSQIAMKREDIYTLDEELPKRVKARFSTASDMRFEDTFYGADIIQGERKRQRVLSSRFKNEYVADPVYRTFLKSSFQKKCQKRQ
Chain of Keap1/Nrf2 (Q16236 whole entry, the tested form may be a part): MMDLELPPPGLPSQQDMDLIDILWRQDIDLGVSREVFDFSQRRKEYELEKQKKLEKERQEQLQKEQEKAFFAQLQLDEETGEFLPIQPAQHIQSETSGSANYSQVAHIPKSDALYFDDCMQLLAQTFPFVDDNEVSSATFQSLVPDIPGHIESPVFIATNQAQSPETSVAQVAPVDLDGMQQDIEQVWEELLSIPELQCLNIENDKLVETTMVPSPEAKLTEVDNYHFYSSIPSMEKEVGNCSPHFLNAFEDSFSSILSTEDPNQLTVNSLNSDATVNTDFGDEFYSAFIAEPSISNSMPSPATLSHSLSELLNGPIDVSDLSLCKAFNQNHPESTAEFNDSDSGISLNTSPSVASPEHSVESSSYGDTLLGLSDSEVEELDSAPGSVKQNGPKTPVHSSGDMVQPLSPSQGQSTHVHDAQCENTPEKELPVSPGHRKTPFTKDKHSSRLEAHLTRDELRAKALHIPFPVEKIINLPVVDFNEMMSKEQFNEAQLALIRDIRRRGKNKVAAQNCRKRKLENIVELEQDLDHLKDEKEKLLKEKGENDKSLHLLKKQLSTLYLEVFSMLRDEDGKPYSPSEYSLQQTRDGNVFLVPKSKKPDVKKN
Chain of Keap1/Nrf2 (Q14145 whole entry, the tested form may be a part): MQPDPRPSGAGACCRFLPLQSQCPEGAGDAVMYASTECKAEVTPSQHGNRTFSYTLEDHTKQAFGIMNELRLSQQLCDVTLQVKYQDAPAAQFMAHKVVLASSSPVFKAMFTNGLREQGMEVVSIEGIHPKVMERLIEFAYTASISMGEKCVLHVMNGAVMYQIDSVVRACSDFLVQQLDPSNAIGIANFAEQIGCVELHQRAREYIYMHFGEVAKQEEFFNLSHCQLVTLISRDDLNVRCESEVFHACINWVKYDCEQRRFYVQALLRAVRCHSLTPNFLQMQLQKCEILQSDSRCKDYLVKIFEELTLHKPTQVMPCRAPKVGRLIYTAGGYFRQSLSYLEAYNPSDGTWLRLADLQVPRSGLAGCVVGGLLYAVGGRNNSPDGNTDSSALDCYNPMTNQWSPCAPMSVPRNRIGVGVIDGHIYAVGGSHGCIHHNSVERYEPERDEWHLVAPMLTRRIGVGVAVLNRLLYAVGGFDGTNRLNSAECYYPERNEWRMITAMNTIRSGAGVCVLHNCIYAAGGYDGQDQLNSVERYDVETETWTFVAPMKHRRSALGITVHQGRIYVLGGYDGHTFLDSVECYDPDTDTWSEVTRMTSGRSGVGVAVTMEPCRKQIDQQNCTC
Chain of Mothers against decapentaplegic homolog 3 (P84022 whole entry): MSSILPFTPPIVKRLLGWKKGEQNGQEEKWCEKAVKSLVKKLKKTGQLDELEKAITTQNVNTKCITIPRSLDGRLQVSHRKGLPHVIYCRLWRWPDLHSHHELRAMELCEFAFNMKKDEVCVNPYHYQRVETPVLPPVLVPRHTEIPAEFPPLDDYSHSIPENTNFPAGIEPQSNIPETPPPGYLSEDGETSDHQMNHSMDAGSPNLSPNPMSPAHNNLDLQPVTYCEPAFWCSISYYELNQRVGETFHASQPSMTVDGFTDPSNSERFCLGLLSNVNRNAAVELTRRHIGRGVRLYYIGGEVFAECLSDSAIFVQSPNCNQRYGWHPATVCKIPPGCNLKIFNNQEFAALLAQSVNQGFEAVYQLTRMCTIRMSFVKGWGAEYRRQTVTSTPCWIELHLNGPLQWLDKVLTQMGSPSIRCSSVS
Chain of Cytochrome P450 2C19 (P33261 whole entry): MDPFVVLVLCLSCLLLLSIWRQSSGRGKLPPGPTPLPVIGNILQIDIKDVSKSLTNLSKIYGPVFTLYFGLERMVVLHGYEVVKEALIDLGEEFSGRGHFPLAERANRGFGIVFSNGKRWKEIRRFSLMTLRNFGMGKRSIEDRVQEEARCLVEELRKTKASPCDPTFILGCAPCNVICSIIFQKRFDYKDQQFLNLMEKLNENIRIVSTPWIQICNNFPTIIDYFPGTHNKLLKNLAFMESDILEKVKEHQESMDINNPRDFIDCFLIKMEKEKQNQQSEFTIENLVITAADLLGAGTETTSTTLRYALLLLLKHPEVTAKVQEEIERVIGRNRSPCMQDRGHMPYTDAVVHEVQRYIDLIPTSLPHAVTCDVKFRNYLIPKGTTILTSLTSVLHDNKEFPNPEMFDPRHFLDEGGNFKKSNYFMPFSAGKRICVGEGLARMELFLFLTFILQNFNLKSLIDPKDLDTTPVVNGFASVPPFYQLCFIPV
Chain of Estrogen receptor beta (Q92731 whole entry): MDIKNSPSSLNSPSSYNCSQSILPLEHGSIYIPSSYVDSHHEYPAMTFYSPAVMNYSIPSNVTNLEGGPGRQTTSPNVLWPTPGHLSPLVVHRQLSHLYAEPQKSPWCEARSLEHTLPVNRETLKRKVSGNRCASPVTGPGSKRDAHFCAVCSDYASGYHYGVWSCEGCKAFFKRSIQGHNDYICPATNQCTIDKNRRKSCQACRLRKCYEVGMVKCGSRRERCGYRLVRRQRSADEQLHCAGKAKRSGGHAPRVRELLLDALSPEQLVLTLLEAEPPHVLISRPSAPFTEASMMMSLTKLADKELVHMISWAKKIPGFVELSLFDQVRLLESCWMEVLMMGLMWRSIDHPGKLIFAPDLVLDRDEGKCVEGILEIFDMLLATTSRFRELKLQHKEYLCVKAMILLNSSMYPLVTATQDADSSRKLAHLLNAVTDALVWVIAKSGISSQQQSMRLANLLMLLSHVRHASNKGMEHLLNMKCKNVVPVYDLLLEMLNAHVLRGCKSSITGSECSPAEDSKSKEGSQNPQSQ

Compound: CCN1/C(=C/c2ccc3cc(C)ccc3[n+]2CC)Sc2cc(C)c(C)cc21
- EC50 [1]: 11.9 µM (active)

Compound: Nc1ccc2nc3c(O)nc(S)nc3nc2c1
- AC50 (Keap1/Nrf2): 3.55 µM (active)
- EC50 [2]: 7.85 µM (inconclusive)

Compound: COc1ccc(C(=O)Nc2nc3c(s2)Cc2cc(OC)ccc2-3)cc1
- IC50 (Estrogen receptor beta): > 50 µM (not active)
- AC50 (Cytochrome P450 2C19): 5.01 µM (inconclusive)

Compound: Cc1oc2c(c1C(=O)c1ccccc1)C(=O)C(=O)c1ccccc1-2
- EC50 [3]: > 120 µM (not active)

Compound: O=C1CCCC2=C1C1(O)C(=O)c3ccccc3C1(O)O2 (stereo unspecified)
- IC50 [4]: 2.73 µM (active)

Compound: CSc1ccc(C=NNc2ccc(S(=O)(=O)Nc3ccccc3C(=O)O)cc2[N+](=O)[O-])cc1
- AC50 [5]: 5.43 µM (active)

Compound: O=C(O)COc1ccc(/C=N/NC(=O)c2ccc(-c3csc(Nc4ccc(Cl)cc4)n3)cc2)cc1
- IC50 [6]: > 50 µM (inactive)
- IC50 [7]: 27.3 µM (active)

Compound: CC(/C=C1\SC(=S)N(NS(=O)(=O)c2ccccc2)C1=O)=C\c1ccccc1
- IC50 (Phospholipase A2): 8.23 µM (active)

Reference: ChEMBL document CHEMBL1201862, “PubChem BioAssay data set” (2004)
